We go through three compounds from patent US20040087661A1, “Treatment of CNS disorders with trans 4-3(3,4-dichlorophenyl)-1,2,3,4-tetrahydro-N-methyl-1-napthalenamine” (Sepracor, Inc., priority 2002, published 2004).

Where two headings read alike, the source gives them in different places.

In assay [1] the target is T1, functional uptake of norepinephrine (NE) (Rattus norvegicus, UniProt Q63380).
T1 construct: synaptosomes isolated at Cerep in a 0.32 M sucrose buffer from a male Wistar rat hypothalamus; tissue Cerep; host or cells: male Wistar rat hypothalamus synaptosomes
Nature of the assay: Norepinephrine functional uptake assay in rat hypothalamus synaptosomes. Format: biochemical. Particulars: read-out: inhibition of NE uptake (no IC50 determined).
Experimental: Norepinephrine Functional Uptake Assay
Characterization of norepinephrine uptake is performed using synaptosomes isolated at Cerep in a 0.32 M sucrose buffer from a male Wistar rat hypothalamus. The uptake of radiolabeled norepinephrine by synaptosomes (100 μg of proteins/point) is allowed by incubating them in a deep well for 20 minutes at 37° C. in presence of test compounds and [^3H]-norepinephrine (0.1 μCi/point).
Synaptosomes and [^3H]-norepinephrine are prepared in a Krebs buffer pH 7.4 containing 25 mM NaHCO3, 11 mM glucose and 50 μM ascorbic acid. This incubation buffer is oxygenated during 5 minutes before incubation. Basal control is incubated for 20 minutes at 4° C. in order to avoid any uptake. Following this incubation the uptake is stopped by filtration through an “unifilter 96-wells GFB” Packard plate washed with Krebs buffer containing 25 mM NaHCO3 in order to eliminate the free [^3H]-norepinephrine. The radioactivity associated to the synaptosomes retained onto the unifilter corresponding to the uptake is then measured with a microplate scintillation counter Topcount, Packard using a scintillation liquid microscint 0, Packard.

Assay [2] has as its target T2, functional uptake of dopamine (DA) (Rattus norvegicus, UniProt P23977).
T2 construct: synaptosomes isolated at Cerep in a 0.32 M sucrose buffer from a male Wistar rat striatum; tissue Cerep; host or cells: male Wistar rat striatum synaptosomes
The experiment in a line: Dopamine functional uptake assay in rat striatum synaptosomes. Format: biochemical. Particulars: initial test at 10 μM in duplicate; read-out: inhibition of DA uptake (no IC50 determined).
Experimental: Dopamine Functional Uptake Assay
Characterization of dopamine uptake is performed using synaptosomes isolated at Cerep in a 0.32 M sucrose buffer from a male Wistar rat striatum. The uptake of radiolabelled dopamine by synaptosomes (20 μg of proteins/point) is allowed by incubating them in a deep well for 15 minutes at 37° C. in presence of test compounds and [^3H]-dopamine (0.1 μCi/point).
Synaptosomes and [^3H]-dopamine are prepared in a Krebs buffer pH 7.4 containing 25 mM NaHCO3, 11 mM glucose and 50 μM ascorbic acid. This incubation buffer is oxygenated during 5 minutes before incubation. Basal control is incubated for 15 minutes at 4° C. in order to avoid any uptake. Following this incubation the uptake is stopped by filtration through an “unifilter 96-wells GFB” Packard plate washed with Krebs buffer containing 25 mM NaHCO3 in order to eliminate the free [^3H]-dopamine. The radioactivity associated to the synaptosomes retained onto the unifilter corresponding to the uptake is then measured with a microplate scintillation counter Topcount, Packard using a scintillation liquid microscint 0, Packard.

T2 sequence (P23977 whole entry): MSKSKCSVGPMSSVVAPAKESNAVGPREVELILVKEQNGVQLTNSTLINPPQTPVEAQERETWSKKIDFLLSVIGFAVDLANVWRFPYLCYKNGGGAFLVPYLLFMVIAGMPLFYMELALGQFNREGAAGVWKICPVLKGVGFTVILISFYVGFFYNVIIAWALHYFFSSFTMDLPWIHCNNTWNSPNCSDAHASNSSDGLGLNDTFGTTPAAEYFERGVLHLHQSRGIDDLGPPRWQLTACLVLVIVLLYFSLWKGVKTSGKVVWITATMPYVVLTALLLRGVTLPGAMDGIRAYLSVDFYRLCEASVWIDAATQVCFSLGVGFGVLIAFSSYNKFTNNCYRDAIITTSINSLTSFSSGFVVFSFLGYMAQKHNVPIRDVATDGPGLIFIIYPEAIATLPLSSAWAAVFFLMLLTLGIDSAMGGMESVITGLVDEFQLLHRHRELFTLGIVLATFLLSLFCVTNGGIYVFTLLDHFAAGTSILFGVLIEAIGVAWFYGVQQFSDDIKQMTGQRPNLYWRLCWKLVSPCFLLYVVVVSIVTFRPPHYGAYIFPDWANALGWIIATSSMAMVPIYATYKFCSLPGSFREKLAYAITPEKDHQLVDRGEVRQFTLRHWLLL
T1 sequence (Q63380 1-617): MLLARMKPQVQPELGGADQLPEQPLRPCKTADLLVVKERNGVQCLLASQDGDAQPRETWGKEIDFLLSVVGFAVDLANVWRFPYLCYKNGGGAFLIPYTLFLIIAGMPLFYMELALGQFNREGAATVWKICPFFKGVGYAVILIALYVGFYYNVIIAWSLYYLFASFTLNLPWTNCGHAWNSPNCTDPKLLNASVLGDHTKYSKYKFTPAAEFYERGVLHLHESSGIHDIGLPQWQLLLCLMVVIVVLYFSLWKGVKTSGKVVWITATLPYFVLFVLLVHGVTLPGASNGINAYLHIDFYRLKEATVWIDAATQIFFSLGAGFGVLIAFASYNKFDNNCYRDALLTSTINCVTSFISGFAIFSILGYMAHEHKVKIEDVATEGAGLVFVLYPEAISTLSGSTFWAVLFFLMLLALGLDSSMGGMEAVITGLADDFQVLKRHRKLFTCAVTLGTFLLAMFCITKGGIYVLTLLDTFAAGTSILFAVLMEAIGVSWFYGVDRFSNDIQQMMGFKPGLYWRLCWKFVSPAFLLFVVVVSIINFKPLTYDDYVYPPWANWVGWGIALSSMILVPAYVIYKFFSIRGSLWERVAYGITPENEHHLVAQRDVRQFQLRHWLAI

Consider `Fc1ccc(C(OCCN2CCN(CCCc3ccccc3)CC2)c2ccc(F)cc2)cc1` [GBR 12909], for which, in assay [1] (initial test at 10 μM in duplicate), the inhibition at 10 µM is under 50%. Regarding `CN(C)CCCN1c2ccccc2CCc2ccccc21` [imipramine], the inhibition at 10 µM in assay [1] and in assay [2] was under 50% each time. With `CNCCCC1c2ccccc2C=Cc2ccccc21` [protriptyline], the inhibition at 10 µM in assay [2] is under 50%.
